Where two headings read alike, the source gives them in different places.
Columns and labels:
GM1 production = assay: cells; assay type: cell-based
[1] = target: glucosylceramide synthase (GCS) (Homo sapiens (Human), UniProt Q16739); assay: Evaluation of inhibitory activities against GCS (enzyme reaction with A549 cell lysate, NBD C6-ceramide, HPLC fluorescence); assay type: biochemical; conditions: GCS activity in A549 cell lysate, 37° C. for 90 minutes
Protocol: Ibiglustat, known as a GCS inhibitor, was used as a control.
After the cells attached to the culture dish were washed with phosphate buffered saline (PBS), the cells were scraped off with a cell scraper and then centrifuged (4000 rpm, 3 min, 4° C.) to collect the cells in a 50 ml tube. The cell pellets were suspended in a lysis buffer (50 mM HEPES, pH 7.3, containing 1× the protease/phosphatase inhibitor cocktail), lysed by sonication, and then the lysate was centrifuged (13000 rpm, 10 min, 4° C.). The obtained supernatant was used for the quantitative analysis of proteins. The amount of proteins was measured using the BCA protein assay kit, using bovine serum albumin as a standard.
Enzymatic reactions were initiated by sequentially adding the following reaction materials to a 96 deep-well plate. Thereafter, the enzymatic reactions were performed at 37° C. for 90 minutes.
The enzymatic reactions were stopped by adding 100 μl of chloroform/methanol (2:1, v/v). After vortexing for 15 seconds, each mixture was centrifuged (4000 rpm, 10 min, 18° C.). The lower layer (50 μl) was transferred to a new 96 deep-well plate and dried with a reduced concentrator.
Data analysis was performed by the following equations. % Area (Sample)=Area (GlcCer)/[Area (Cer)+Area (GlcCer)]×100 % GCS activity=[Area(Sample)−Area(ibiglustat)]/[Area(DMSO)−Area(ibiglustat)]×100

Chain of glucosylceramide synthase (GCS) (Q16739 whole entry, looked up): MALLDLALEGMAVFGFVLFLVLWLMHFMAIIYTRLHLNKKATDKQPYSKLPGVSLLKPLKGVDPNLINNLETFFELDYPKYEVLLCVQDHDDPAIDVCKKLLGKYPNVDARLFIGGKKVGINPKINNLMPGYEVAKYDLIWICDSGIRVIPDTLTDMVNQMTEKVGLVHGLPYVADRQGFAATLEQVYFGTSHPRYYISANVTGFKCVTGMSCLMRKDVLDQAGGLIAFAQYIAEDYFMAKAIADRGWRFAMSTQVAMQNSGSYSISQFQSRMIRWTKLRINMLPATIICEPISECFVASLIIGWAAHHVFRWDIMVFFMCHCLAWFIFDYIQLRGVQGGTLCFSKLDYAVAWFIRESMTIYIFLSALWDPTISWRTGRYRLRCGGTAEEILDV

| Structure (SMILES) | IC50 (GM1 production; Homo sapiens, Jurkat, 72 h) | IC50 [1] | IC50 (GM1 production; read-out: IC50) |
| --- | --- | --- | --- |
| CCc1ccc(-c2ccc3c(c2)CCCC3NC(=O)O[C@@H]2CN3CCC2CC3)cc1 (stereo partly drawn) [Example 31, (S)-quinuclidin-3-yl (6-(4-ethylphenyl)-1,2,3,4-tetrahydronaphthalen-1-yl)carbamate] | 2.92 nM | 6.58 nM | – |
| CCCc1ccc(-c2ccc3c(c2)CCCC3NC(=O)O[C@@H]2CN3CCC2CC3)cc1 (stereo partly drawn) [Example 32, (S)-quinuclidin-3-yl (6-(4-propylphenyl)-1,2,3,4-tetrahydronaphthalen-1-yl)carbamate] | 475 nM | 8.31 nM | – |
| CCCCc1ccc(-c2ccc3c(c2)CCCC3NC(=O)O[C@@H]2CN3CCC2CC3)cc1 (stereo partly drawn) [Example 33, (S)-quinuclidin-3-yl (6-(4-butylphenyl)-1,2,3,4-tetrahydronaphthalen-1-yl)carbamate] | 499 nM | 3.95 nM | – |
| CC(C)c1ccc(-c2ccc3c(c2)CCCC3NC(=O)O[C@@H]2CN3CCC2CC3)cc1 (stereo partly drawn) [Example 34, (S)-quinuclidin-3-yl (6-(4-isopropylphenyl)-1,2,3,4-tetrahydronaphthalen-1-yl)carbamate] | 298 nM | 6.1 nM | – |
| CC(C)Cc1ccc(-c2ccc3c(c2)CCCC3NC(=O)O[C@@H]2CN3CCC2CC3)cc1 (stereo partly drawn) [Example 35, (S)-quinuclidin-3-yl (6-(4-isobutylphenyl)-1,2,3,4-tetrahydronaphthalen-1-yl)carbamate] | 265 nM | 9.16 nM | – |
| CC(C)(C)c1ccc(-c2ccc3c(c2)CCCC3NC(=O)O[C@@H]2CN3CCC2CC3)cc1 (stereo partly drawn) [Example 36, (S)-quinuclidin-3-yl (6-(4-(tert-butyl)phenyl)-1,2,3,4-tetrahydronaphthalen-1-yl)carbamate] | 339 nM | 22.4 nM | – |
| O=C(NC1CCCc2cc(-c3ccc(C4CC4)cc3)ccc21)O[C@H]1CN2CCC1CC2 (stereo partly drawn) [Example 37, (S)-quinuclidin-3-yl (6-(4-cyclopropyl)-1,2,3,4-tetrahydronaphthalen-1-yl)carbamate] | – | 5.07 nM | 286 nM |
| CCc1cccc(-c2ccc3c(c2)CCCC3NC(=O)O[C@@H]2CN3CCC2CC3)c1 (stereo partly drawn) [Example 38, (S)-quinuclidin-3-yl (6-(3-ethylphenyl)-1,2,3,4-tetrahydronaphthalen-1-yl)carbamate] | 316 nM | 1.7 nM | – |
| CC(C)(C)c1cccc(-c2ccc3c(c2)CCCC3NC(=O)O[C@@H]2CN3CCC2CC3)c1 (stereo partly drawn) [Example 39, (S)-quinuclidin-3-yl (6-(3-(tert-butyl)phenyl)-1,2,3,4-tetrahydronaphthalen-1-yl)carbamate] | 849 nM | 2.88 nM | – |
| CC(C)c1cccc(-c2ccc3c(c2)CCCC3NC(=O)O[C@@H]2CN3CCC2CC3)c1 (stereo partly drawn) [Example 40, (S)-quinuclidin-3-yl (6-(3-isopropylphenyl)-1,2,3,4-tetrahydronaphthalen-1-yl)carbamate] | 218 nM | 1.77 nM | – |
| CCc1ccccc1-c1ccc2c(c1)CCCC2NC(=O)O[C@@H]1CN2CCC1CC2 (stereo partly drawn) [Example 41, (S)-quinuclidin-3-yl (6-(2-ethylphenyl)-1,2,3,4-tetrahydronaphthalen-1-yl)carbamate] | 292 nM | 9.08 nM | – |
| O=C(NC1CCCc2cc(-c3ccc4c(c3)OC(F)(F)O4)ccc21)O[C@@H]1CN2CCC1CC2 (stereo partly drawn) [Example 42, (S)-quinuclidin-3-yl (6-(2,2-difluorobenzo[d][1,3]dioxol-5-yl)-1,2,3,4-tetrahydronaphthalen-1-yl)carbamate] | 210 nM | 6.71 nM | – |
| O=C(NC1CCCc2cc(-c3ccc4c(c3)OCCO4)ccc21)O[C@@H]1CN2CCC1CC2 (stereo partly drawn) [Example 43, (S)-quinuclidin-3-yl (6-(2,3-dihydrobenzo[b][1,4]dioxin-6-yl)-1,2,3,4-tetrahydronaphthalen-1-yl)carbamate] | 616 nM | 6.06 nM | – |
| O=C(NC1CCCc2cc(-c3ccc4c(c3)OCC4)ccc21)O[C@@H]1CN2CCC1CC2 (stereo partly drawn) [Example 44, (S)-quinuclidin-3-yl (6-(2,3-dihydrobenzofuran-6-yl)-1,2,3,4-tetrahydronaphthalen-1-yl)carbamate] | 480 nM | 7.59 nM | – |
| O=C(NC1CCCc2cc(-c3ccc(N4CCOCC4)cc3)ccc21)O[C@@H]1CN2CCC1CC2 (stereo partly drawn) [Example 45, (S)-quinuclidin-3-yl (6-(4-morpholinophenyl)-1,2,3,4-tetrahydronaphthalen-1-yl)carbamate] | 152 nM | 21.3 nM | – |
| COc1ccc(-c2ccc3c(c2)CCCC3NC(=O)O[C@@H]2CN3CCC2CC3)cc1 (stereo partly drawn) [Example 46, (S)-quinuclidin-3-yl (6-(4-methoxyphenyl)-1,2,3,4-tetrahydronaphthalen-1-yl)carbamate] | 216 nM | 13 nM | – |
| COc1cccc(-c2ccc3c(c2)CCCC3NC(=O)O[C@@H]2CN3CCC2CC3)c1 (stereo partly drawn) [Example 47, (S)-quinuclidin-3-yl (6-(3-methoxyphenyl)-1,2,3,4-tetrahydronaphthalen-1-yl)carbamate] | 433 nM | 2.52 nM | – |

| Structure (SMILES) | IC50 (GM1 production; Homo sapiens, Jurkat, 72 h) | IC50 [1] | IC50 (GM1 production; read-out: IC50) |
| --- | --- | --- | --- |
| COc1ccccc1-c1ccc2c(c1)CCCC2NC(=O)O[C@@H]1CN2CCC1CC2 (stereo partly drawn) [Example 48, (S)-quinuclidin-3-yl (6-(2-methoxyphenyl)-1,2,3,4-tetrahydronaphthalen-1-yl)carbamate] | 362 nM | 3.02 nM | – |
| O=C(NC1CCCc2cc(-c3ccncc3F)ccc21)O[C@@H]1CN2CCC1CC2 (stereo partly drawn) [Example 49, (S)-quinuclidin-3-yl (6-(3-fluoropyridin-4-yl)-1,2,3,4-tetrahydronaphthalen-1-yl)carbamate] | 412 nM | 35 nM | – |
| Cc1cc(-c2ccc3c(c2)CCCC3NC(=O)O[C@@H]2CN3CCC2CC3)ccn1 (stereo partly drawn) [Example 50, (S)-quinuclidin-3-yl (6-(2-methylpyridin-4-yl)-1,2,3,4-tetrahydronaphthalen-1-yl)carbamate] | 2190 nM | 33.5 nM | – |
| COc1cc(-c2ccc3c(c2)CCCC3NC(=O)O[C@@H]2CN3CCC2CC3)ccn1 (stereo partly drawn) [Example 51, (S)-quinuclidin-3-yl (6-(2-methoxypyridin-4-yl)-1,2,3,4-tetrahydronaphthalen-1-yl)carbamate] | 426 nM | 9.42 nM | – |
| O=C(NC1CCCc2cc(-c3cnc4[nH]ccc4c3)ccc21)O[C@@H]1CN2CCC1CC2 (stereo partly drawn) [Example 52, (S)-quinuclidin-3-yl (6-(1H-pyrrolo[2,3-b]pyridin-5-yl)-1,2,3,4-tetrahydronaphthalen-1-yl)carbamate] | 22.7 nM | 31.8 nM | – |
| O=C(NC1CCCc2cc(-c3cncnc3)ccc21)O[C@@H]1CN2CCC1CC2 (stereo partly drawn) [Example 53, (S)-quinuclidin-3-yl (6-(pyrimidin-5-yl)-1,2,3,4-tetrahydronaphthalen-1-yl)carbamate] | 314 nM | 86.4 nM | – |
| O=C(NC1CCCc2cc(-c3ccnc4[nH]ccc34)ccc21)O[C@@H]1CN2CCC1CC2 (stereo partly drawn) [Example 54, (S)-quinuclidin-3-yl (6-(1H-pyrrolo[2,3-b]pyridin-4-yl)-1,2,3,4-tetrahydronaphthalen-1-yl)carbamate] | 216 nM | 61.8 nM | – |
| O=C(NC1CCCc2ccc(-c3ccc(F)cc3)cc21)O[C@@H]1CN2CCC1CC2 (stereo partly drawn) [Example 55, (S)-quinuclidin-3-yl (7-(4-fluorophenyl)-1,2,3,4-tetrahydronaphthalen-1-yl)carbamate] | 110 nM | 34.1 nM | – |
| Cc1ccc(-c2ccc3c(c2)C(NC(=O)O[C@@H]2CN4CCC2CC4)CCC3)cc1 (stereo partly drawn) [Example 57, (S)-quinuclidin-3-yl (7-(p-tolyl)-1,2,3,4-tetrahydronaphthalen-1-yl)carbamate] | 81.2 nM | 23.4 nM | – |
| O=C(NC1CCCc2ccc(-c3cccc(F)c3)cc21)O[C@@H]1CN2CCC1CC2 (stereo partly drawn) [Example 58] | – | 10.8 nM | 73.5 nM |
| O=C(NC1CCCc2ccc(-c3ccccc3F)cc21)O[C@@H]1CN2CCC1CC2 (stereo partly drawn) [Example 61] | – | 8.48 nM | 61.9 nM |
| O=C(NC1CCCc2ccc(-c3ccccc3Cl)cc21)O[C@@H]1CN2CCC1CC2 (stereo partly drawn) [Example 62, (S)-quinuclidin-3-yl (7-(2-chlorophenyl)-1,2,3,4-tetrahydronaphthalen-1-yl)carbamate] | 49.2 nM | 7.37 nM | – |
| O=C(NC1CCCc2ccc(-c3ccccc3C(F)(F)F)cc21)O[C@@H]1CN2CCC1CC2 (stereo partly drawn) [Example 63, (S)-quinuclidin-3-yl (7-(2-(trifluoromethyl)phenyl)-1,2,3,4-tetrahydronaphthalen-1-yl)carbamate] | 41.8 nM | 6.7 nM | – |
| O=C(NC1CCCc2ccc(-c3ccc(F)c(F)c3)cc21)O[C@@H]1CN2CCC1CC2 (stereo partly drawn) [Example 64, (S)-quinuclidin-3-yl (7-(3,4-difluorophenyl)-1,2,3,4-tetrahydronaphthalen-1-yl)carbamate] | 131 nM | 13 nM | – |
| O=C(NC1CCCc2ccc(-c3ccc(F)cc3F)cc21)O[C@@H]1CN2CCC1CC2 (stereo partly drawn) [Example 65, (S)-quinuclidin-3-yl (7-(2,4-difluorophenyl)-1,2,3,4-tetrahydronaphthalen-1-yl)carbamate] | 95.5 nM | 14.2 nM | – |
| O=C(NC1CCCc2ccc(-c3cc(F)c(F)cc3F)cc21)O[C@@H]1CN2CCC1CC2 (stereo partly drawn) [Example 66, (S)-quinuclidin-3-yl (7-(2,4,5-trifluorophenyl)-1,2,3,4-tetrahydronaphthalen-1-yl)carbamate] | 102 nM | 46.9 nM | – |
